# Laboratory results: patent US20140187587A1, “SYNERGISTIC FUNGICIDAL MIXTURES FOR FUNGAL CONTROL IN CEREALS” (Dow Agrosciences LLC, priority 2012, published 2014)
# Experiments:
# [1] = system: Septoria tritici (SEPTTR); assay: 1-day protectant (1DP) test of fungicide mixtures vs. leaf blotch of wheat; type: in vivo, Mycosphaerella graminicola; anamorph: Septoria tritici; conditions: single active, wheat (Yuma) plants
# Method: (§1) For the mixture studies with the compound of Formula I: Treatments consisted of fungicides, including the compound of Formula I and fluxapyroxad. Technical grades of materials were dissolved in acetone to make stock solutions, which were then used to perform 4-fold dilutions in acetone for each individual fungicide component or for the two-way mixture. Desired fungicide rates were obtained after mixing dilutions with 9 volumes of water containing 110 parts per million (ppm) Triton X-100. The fungicide solutions (20 milliliters (mL)) were applied to 12 pots of plants using an automated booth sprayer, which utilized two 6218-1/4 JAUPM spray nozzles operating at 20 pounds per square inch (psi) set at opposing angles to cover both leaf surfaces. All sprayed plants were allowed to air dry prior to further handling. Control plants were sprayed in the same manner with a solvent blank.
# Evaluation of Curative and Protectant Activity of Fungicide Mixtures vs. Leaf Blotch of Wheat (Mycosphaerella graminicola; Anamorph: Septoria tritici; Bayer Code: SEPTTR).
# Wheat plants (variety Yuma) were grown from seed in a greenhouse in plastic pots with a surface area of 27.5 square centimeters (cm^2) containing 50% mineral soil/50% soil-less Metro mix, with 8-12 seedlings per pot. The plants were utilized for testing when the first leaf was fully emerged, which typically occurred 7-8 days after planting. Test plants were inoculated with an aqueous spore suspension of Septoria tritici either (a) 3 days prior to fungicide treatments (3-day curative test, 3DC) or (b) 1 day after fungicide treatments (1-day protectant test, 1DP). After inoculation the plants were placed in a dew room from 1-3 days to allow for infection to occur. The plants were then placed in the greenhouse for symptom development to occur, which in the case of SEPTTR typically required 25-30 days.
# (§2) When disease severity reached 50-100% on the control plants, infection levels were assessed on treated plants visually and scored on a scale of 0 to 100 percent. The percentage of disease control was then calculated using the ratio of disease on treated plants relative to control plants.
# (§3) The Colby equation was used to determine the fungicidal effects expected from the mixtures. (See Colby, S. R. Calculation of the synergistic and antagonistic response of herbicide combinations. Weeds 1967, 15, 20-22.)
# (§4) The following equation was used to calculate the expected activity of mixtures containing two active ingredients, A and B:
# (§5) A=observed efficacy of active component A at the same concentration as used in the mixture;
# (§6) B=observed efficacy of active component B at the same concentration as used in the mixture.
# [2] = system: Puccinia recondita (PUCCRT); assay: 3-day curative (3DC) test of fungicide mixtures vs. wheat brown rust; type: in vivo; conditions: single active, wheat (Yuma) plants
# Method: as §1
# Evaluation of Curative Activity of Fungicide Mixtures vs. Wheat Brown Rust (Puccinia recondita; Bayer Code: PUCCRT).
# Yuma wheat seedlings were grown as described above and inoculated with an aqueous spore suspension of Puccinia recondita 3 days prior to fungicide treatment (3DC). After inoculation, plants were placed in a dew room for 1 day to allow for infection to occur. The plants were then placed in the greenhouse for symptom development to occur, which in the case of PUCCRT typically required 7-10 days.
# as §2, §3, §4, §5, §6
Structure (SMILES),"% DC Obs (percent disease control observed), SEPTTR 1DP ([1]; application rate 0.1 ppm) [%]","% DC Obs (percent disease control observed), SEPTTR 1DP ([1]; application rate 0.39 ppm) [%]","% DC Obs (percent disease control observed), SEPTTR 1DP ([1]; application rate 1.56 ppm) [%]","% DC Obs (percent disease control observed), SEPTTR 1DP ([1]; application rate 6.25 ppm) [%]","% DC Obs (percent disease control observed), PUCCRT 3DC ([2]; application rate 0.1 ppm) [%]","% DC Obs (percent disease control observed), PUCCRT 3DC ([2]; application rate 0.39 ppm) [%]","% DC Obs (percent disease control observed), PUCCRT 3DC ([2]; application rate 1.56 ppm) [%]","% DC Obs (percent disease control observed), PUCCRT 3DC ([2]; application rate 6.25 ppm) [%]"
"COc1ccnc(C(=O)N[C@H]2COC(=O)[C@H](Cc3ccccc3)[C@@H](OC(=O)C(C)C)[C@H](C)OC2=O)c1OCOC(=O)C(C)C [Compound I, (3S,6S,7R,8R)-8-benzyl-3-(3-((isobutyryloxy)methoxy)-4-methoxypicolinamido)-6-methyl-4,9-dioxo-1,5-dioxonan-7-yl isobutyrate]",0,0,2,93,2,0,12,98
"Cn1cc(C(=O)Nc2ccccc2-c2cc(F)c(F)c(F)c2)c(C(F)F)n1 [Fluxapyroxad, 3-(difluoromethyl)-1-methyl-N-(3′,4′,5′-trifluorobiphenyl-2-yl)pyrazole-4-carboxamide]",0,0,0,94,0,0,86,100
